From patent publication US3994910A, “Derivatives of 1,2-diphenyl-3,5-dioxo-4-N-butyl-pyrazolidine and process for making same” (Antonia Gallardo, S.A., priority 1973, dated 1976)
“Also recorded” adds a separate entry of the source. Counter-ions that a name gives are not always drawn. Like-named read-outs stand apart in the source and are kept apart here.

Columns and labels:
in vivo = conditions: rat, po
rat stomach [1] = conditions: in vivo
rat stomach [2] = experiment: Ulcerogenic activity on the stomach; conditions: compared with phenylbutazone
[3] = test system: contortions induced by acetic acid in mice; experiment: Inhibition of contortions induced by acetic acid injected into the abdominal cavity of the mouse; format: in vivo
[4] = test system: humans with reumatic diseases; experiment: Treatment of humans with reumatic diseases / polyarthritics; format: in vivo, human
Excerpt: In general, the new therapeutic compounds can be used to treat the same disorders as phenylbutazone. […] These therapeutic compounds have been found effective in treating humans as well as animals.

[5] = test system: granuloma induced in rats by implantation of cotton balls; experiment: Granuloma induced in rats by implantation of cotton balls; format: in vivo, rat; conditions: for Dry granuloma ± standard error: net weight, (mg) printed in adjoining wet weight head; for Weight of wet granuloma: net weight ± standard error
Excerpt: The figures refer to the net weight of granuloma tissue obtained by subtracting the original weight of the cotton ball.

[6] = test system: carrageenin-induced oedema in the rat's paw; experiment: Inhibition of carrageenin-induced oedema in rat's paw; conditions: for % Inhibition ± standard error (paw oedema): 3 hours after carrageenin; for Volume of paw (ml) ± standard error: measured 3 hours after carrageenin
[7] = background knowledge; cited from earlier work
[8] = 30 mg/kg per os 1 h before acetic acid injection
[9] = 100 mg/kg per os 1 h before acetic acid injection
[10] = 300 mg/kg per os 1 h before acetic acid injection
[11] = high doses (200 mg/kg), both products compared
[12] = lower dose levels (100 and 50 mg/kg)
[13] = 25 mg/kg per os 1 h before carrageenin
[14] = 50 mg/kg per os 1 h before carrageenin
[15] = 100 mg/kg per os 1 h before carrageenin
[16] = 200 mg/kg per os 1 h before carrageenin

Compound | UG: Intensity of ulceration produced in the rat stomach (rat stomach [1]) | ulcerogenic indices ± standard error (rat stomach [1]; 50 mg/kg) | ulcerogenic indices ± standard error (rat stomach [1]; 100 mg/kg) | ulcerogenic indices ± standard error (rat stomach [1]; 200 mg/kg) | No. of contortions ± standard error [3, 8] | % inhibition ± standard error (contortions) [3, 9] [%] | No. of contortions ± standard error [3, 9] | No. of contortions ± standard error [3, 10] | Percentage inhibition Dry granuloma ([5]; 50 mg/Kg/day per os) [%] | Percentage inhibition Wet granuloma ([5]; 50 mg/Kg/day per os) [%] | Dry granuloma ± standard error ([5]; 50 mg/Kg/day per os) [mg] | Percentage inhibition Dry granuloma ([5]; 100 mg/Kg/day per os) [%] | Percentage inhibition Wet granuloma ([5]; 100 mg/Kg/day per os) [%] | Dry granuloma ± standard error ([5]; 100 mg/Kg/day per os) [mg] | Percentage inhibition Dry granuloma ([5]; 200 mg/Kg/day per os) [%] | Percentage inhibition Wet granuloma ([5]; 200 mg/Kg/day per os) [%] | Dry granuloma ± standard error ([5]; 200 mg/Kg/day per os) [mg] | inhibition of granuloma tissue formation [5, 11] | inhibition of granuloma tissue formation [5, 12] | Volume of paw (ml) ± standard error [6, 13] [mL] | other results
NC1=NCCS1 [2-amino-thiazoline, 2-amino-2-thiazoline] |  |  |  |  |  |  |  |  |  |  |  |  |  |  |  |  |  |  |  |  | No. deaths (rat; 316 mg/kg per os): 2; No. deaths (rat; 383 mg/kg per os): 4; No. deaths (rat; 464 mg/kg per os): 6; No. deaths (rat; 562 mg/kg per os): 7; No. deaths (rat; 681 mg/kg per os): 9; No. deaths (rat; 825 mg/kg per os): 9; LD50 (in vivo): 430 mg/kg; mortality (in vivo; 316 mg/kg): 20%; mortality (in vivo; 383 mg/kg): 40%; mortality (in vivo; 464 mg/kg): 60%; mortality (in vivo; 562 mg/kg): 70%; mortality (in vivo; 681 mg/kg): 90%; mortality (in vivo; 825 mg/kg): 90%
CCCCC1C(=O)N(c2ccccc2)N(c2ccccc2)C1=O [LAS 6671, 1,2-diphenyl-3,5-dioxo-4-n-butylpyrazolidine-2-amino-4-methyl-pyridine] | + |  |  |  |  |  |  |  |  |  |  |  |  |  |  |  |  |  |  |  | 
CCCCC1C(=O)N(c2ccccc2)N(c2ccccc2)C1=O [LAS 11871, 1,2-diphenyl-3,5-dioxo-4-n-butylpyrazolidine-2-amino-2-thiazoline] | + | 0.59 ± 0.19 | 2.43 ± 0.41 | 3.65 ± 0.56 | 44.20 ± 6.03 | 54.90 ± 7.76 | 36.90 ± 6.34 | 24.10 ± 3.74 | 20.00 | 14.40 ± 1.90 | 61.82 ± 3.16 | 19.90 ± 6.10 | 18.60 ± 3.70 | 61.95 ± 4.74 | 37.60 ± 2.50 | 20.50 ± 2.80 | 48.29 ± 1.98 | about the same degree of inhibition of granuloma tissue formation | continued to inhibit the granuloma tissue formation | 0.7864 ± 0.0632 | ulcerogenic activity / gastric lesions (rat stomach [2]): much less active in this respect than phenylbutazone; also recorded: produces fewer gastric lesions; % inhibition ± standard error (contortions) [3, 10]: 70.50 ± 4.60%; analgesic activity compared with phenylbutazone ([3]; mouse, in vivo): more potent than phenylbutazone as an analgesic; also recorded: more active as an analgesic and anti-inflammatory agent than phenylbutazone; treatment of polyarthritics ([4]; 200 mg two, or three times per day): successfully treat polyarthritics; treatment of humans with reumatic diseases ([4]; humans): effective in the treatment of humans with reumatic diseases; % Inhibition ± standard error (paw oedema) [6, 13]: 18.60 ± 6.54%; % Inhibition ± standard error (paw oedema) [6, 14]: 36.01 ± 7.06%; Volume of paw (ml) ± standard error [6, 14]: 0.6182 ± 0.0683 mL; % Inhibition ± standard error (paw oedema) [6, 15]: 72.40 ± 4.43%; Volume of paw (ml) ± standard error [6, 15]: 0.2667 ± 0.0428 mL; % Inhibition ± standard error (paw oedema) [6, 16]: 84.00 ± 3.97%; Volume of paw (ml) ± standard error [6, 16]: 0.1545 ± 0.0384 mL; activity against inflammation compared with phenylbutazone ([6]; Table 2, at doses of 50 mg/kg and above): the more active compound; activity against inflammation compared with phenylbutazone ([6]; Table 2, overall): at least as active as phenylbutazone against inflammation; anti-inflammatory activity compared with phenylbutazone ([6]; general statement): more active as an analgesic and anti-inflammatory agent than phenylbutazone
CCCCC1C(=O)N(c2ccccc2)N(c2ccccc2)C1=O [Phenylbutazone, 4-n-butyl-1,2-diphenyl-3,5-pyrazolidinedione] | ++ | 0.73 ± 0.21 | 4.33 ± 0.47 | 5.00 ± 0.56 | 59.00 ± 6.51 | 42.10 ± 8.20 | 47.30 ± 6.70 | 42.30 ± 6.75 | 8.50 ± 10.6 | 4.30 ± 4.10 | 83.94 ± 8.22 | 7.90 ± 6.70 | 6.50 ± 2.90 | 71.23 ± 5.18 | 35.40 ± 5.50 | 22.20 ± 2.80 | 49.96 ± 4.25 | about the same degree of inhibition of granuloma tissue formation | did not | 0.6545 ± 0.0545 | LD50 per os in the rat (only range in parentheses printed) (rat; per os, doses in mg/kg, no central value printed): 530 - 725; % inhibition ± standard error (contortions) [3, 8]: 27.70 ± 7.97%; most frequent serious toxic effects [7]: ulcerogenesis and fluid retention; Weight of wet granuloma ([5]; 50 mg/Kg/day per os): 434.75 ± 18.36 mg; Weight of wet granuloma ([5]; 100 mg/Kg/day per os): 424.50 ± 13.47 mg; Weight of wet granuloma ([5]; 200 mg/Kg/day per os): 353.40 ± 13.14 mg; % Inhibition ± standard error (paw oedema) [6, 14]: 28.70 ± 7.24%; Volume of paw (ml) ± standard error [6, 14]: 0.6886 ± 0.0699 mL; % Inhibition ± standard error (paw oedema) [6, 15]: 67.50 ± 2.30%; Volume of paw (ml) ± standard error [6, 15]: 0.3139 ± 0.0224 mL; % Inhibition ± standard error (paw oedema) [6, 16]: 74.60 ± 4.70%; Volume of paw (ml) ± standard error [6, 16]: 0.2458 ± 0.0454 mL
CCCCC1C(=O)N(c2ccccc2)N(c2ccccc2)C1=O [Piperazine salt of Phenylbutazone] | + |  |  |  |  |  |  |  |  |  |  |  |  |  |  |  |  |  |  |  | 
